Consider one compound from BindingDB's records for doi:10.1016/S0960-894X(01)81215-4 (1993).

Where a SMILES comes first, the peptide text is derived from it. [ ]: non-standard residue; d: D form.

The experiment is described as follows: Displacement of [125I]-ET-1 from Endothelin A receptor of rabbit renal artery vascular smooth muscle cells. Background: In a radioligand displacement assay an active substance lowers the binding of a labelled ligand.

Regarding `CC[C@H](C)[C@H](NC(=O)[C@H](CC(=O)O)NC(=O)[C@H](CCC(=O)O)NC(=O)[C@@H](Cc1ccccc1)NC(C)=O)C(=O)N[C@H](C(=O)N[C@@H](Cc1c[nH]c2ccccc12)C(=O)O)[C@@H](C)CC` [(S)-4-((R)-2-Acetylamino-3-phenyl-propionylamino)-4-((S)-2-carboxy-1-{(S)-1-[(S)-(S)-1-((S)-1-carboxy-2-(S)-1H-indol-3-yl-ethylcarbamoyl)-2-methyl-butylcarbamoyl]-2-methyl-butylcarbamoyl}-ethylcarbamoyl)-butyric acid] (Ac-[dF]EDIIW-OH), the IC50 (in general, the concentration that inhibits the measured activity by half) is 650 nM.
